The record followed here is patent US20170266237A1, “Generation of Brown Adipose Tissue (BAT) from Mesenchymal Cells” (National University of Singapore, priority 2012, published 2017).

Format in all cases: cell-based, human
For experiment [1], the system named is adipogenically induced mesenchymal stem cells. Description: Nile Red adherent cytometry of cytoplasmic lipid accumulation / lipolysis. To be noted: for lipolysis after isoproterenol (emptying of lipid droplets): 16 hrs of 5 μM isoproterenol, white and brown adipogenically induced MSCs. How it is done:
b) Adipogenic Induction of Mesenchymal Stem Cells (MSC). MSCs were seeded at an initial density of about 10.5×10^4 cells/cm^2 in well plates and grown to confluence. Adipogenic differentiation was induced via three cycles of 4 days of induction, followed by 3 days of maintenance. The basal media used in the differentiation process composed of high glucose Dulbecco's modified Eagle's medium (HG DMEM, Gibco) supplemented with Glutamax, 10% fetal bovine serum, 100 units/ml penicillin and […] streptomycin The standard white adipogenic induction media is supplemented with 3-isobutyl-1methylxanthine (0.5 mM), indomethacin (0.2 mM), dexamethasone (1 μM) and insulin (10 μg/ml). For brown adipocyte differentiation, cells were pre-treated with BMP7 (R&D Systems 354-BP, 125 ng/ml) 3 days prior to induction. The brown adipogenic induction media is supplemented with 3-isobutyl-lmethylxanthine (0.5 mM), indomethacin (0.2 mM), dexamethasone (1 μM), insulin (10 μg/ml), triiodothyronine (1 nM) and Rosiglitazone (1 μM). Basal media alone was used during the maintenance phase. For conditions treated with macromolecular crowding (+MMC), a cocktail of macromolecules (+MMC), consisting of Ficoll 70 (37.5 mg/ml) and Ficoll 400 (25 mg/ml) was added to the basal media (High glucose DMEM, Gibco) throughout the differentiation process (during both induction and maintenance phases).
c) Stimulation with forskolin or isoproterenol. After the 3-week adipogenic differentiation, cells were incubated with 10 μM forskolin (Sigma) or 5 μM isoproterenol (Sigma) for 4 h or 16 h before analysis, to mimic nor-adrenergic stimulation in culture.
d) Nile Red Adherent Cytometry to assess area of cytoplasmic lipid accumulation. After 21 days (corresponding to three complete induction cycles), cell cultures were rinsed with PBS, fixed in 4% formaldehyde (10 min; RT) then co-stained for 30 min with Nile Red (Sigma-Aldrich; 5 μg/ml), for cytoplasmic lipid droplets and 4′,6-diamidino-2-phenylindole (DAPI; 0.5 μg/ml) for nuclear DNA as described previously. Adherent fluorescent cytometry was based on 9 sites per well imaged with a coolSNAP HQ camera attached to a Nikon TE2000 microscope at 2× magnification, covering 83% of total well area. Nile Red was viewed under a rhodamine filter [Ex572 nm/Em630 nm] while DAPI fluorescence was assessed with a DAPI filter [Ex350 nm/Em465 nm]. Measured Nile Red events were thresholded and measured by an image analysis software (MetaMorph 6.3v3). Extent of adipogenic differentiation was quantified by area of Nile Red fluorescence from thresholded events normalized to nuclei count based on detected DAPI fluorescence. End data corresponded to total area of lipid droplets present per well relative to cell number.

The test system of experiment [2] is UCP1 mRNA. The experiment is described as follows: Quantitative PCR of UCP1 mRNA after forskolin stimulation of adipogenically induced MSCs. The settings on record: adipogenically induced MSCs stimulated with forskolin. How it is done:
b) Adipogenic Induction of Mesenchymal Stem Cells (MSC). MSCs were seeded at an initial density of about 10.5×10^4 cells/cm^2 in well plates and grown to confluence. Adipogenic differentiation was induced via three cycles of 4 days of induction, followed by 3 days of maintenance. The basal media used in the differentiation process composed of high glucose Dulbecco's modified Eagle's medium (HG DMEM, Gibco) supplemented with Glutamax, 10% fetal bovine serum, 100 units/ml penicillin and […] streptomycin The standard white adipogenic induction media is supplemented with 3-isobutyl-1methylxanthine (0.5 mM), indomethacin (0.2 mM), dexamethasone (1 μM) and insulin (10 μg/ml). For brown adipocyte differentiation, cells were pre-treated with BMP7 (R&D Systems 354-BP, 125 ng/ml) 3 days prior to induction. […]
(§1) e) Quantitative PCR to assess expression of pan-adipocyte and brown adipocyte genes. […] Real time quantitative polymerase chain reactions (RT-PCR) were performed and monitored on a real-time PCR instrument (Stratagene) using Maxima™ SYBR Green/ROX qPCR Master Mix (K0222, Fermentas). […] Relative gene expression levels were determined using the ΔΔ-Ct method with the geometric mean of human TATA-box binding protein (TBP) and ribosomal phosphoprotein P0 (RPLP0) levels as an endogenous control.

Experiment [3] concerns UCP1 mRNA. The experiment is described as follows: Quantitative PCR of UCP1 mRNA expression in adipogenically induced MSCs. To be noted: 3-week adipogenic induction of MSCs. How it is done:
a) Mesenchymal Stem Cell Culture. Human bone-marrow derived mesenchymal stem cells (MSCs) were obtained commercially (Cambrex) at passage 2 (p2) and cultured in a basic culture medium composed of low glucose Dulbecco's modified Eagle's medium (LG DMEM, Gibco) supplemented with Glutamax, 10% fetal bovine serum, 100 units/ml penicillin and […] streptomycin. Cells were maintained at 37° C. in a humidified atmosphere of 5% CO2, with medium change twice per week. To prevent spontaneous differentiation, cells were maintained at subconfluent levels prior to being detached using TrypLE™ Express (Gibco), passaged at 1:3 and cultured to generate subsequent passages. Directed differentiation was carried out with cells between passage 6 (p6) and 8 (p8).
b) Adipogenic Induction of Mesenchymal Stem Cells (MSC). […]
as §1

As to `C=C[C@@]1(C)CC(=O)[C@]2(O)[C@@]3(C)[C@@H](O)CCC(C)(C)[C@@H]3[C@H](O)[C@H](OC(C)=O)[C@@]2(C)O1` [forskolin], in experiment [1] (brown induction protocol, 16 hrs after forskolin stimulus), the “reduction of Nile Red positive area (factor)” value was found to be 2.14. In addition, the “reduction of hypothetical triglyceride volume (factor)” value in experiment [1] (modeled as sphere, brown induced MSCs under crowding, after forskolin treatment) turned out to be 3. Also, the “additional UCP1 mRNA upregulation on forskolin stimulation” value in the experiment on UCP1 mRNA [2] came out at 10 fold.

Regarding `CC(C)NCC(O)c1ccc(O)c(O)c1` (stereo not drawn) [isoproterenol], the “lipolysis after isoproterenol (emptying of lipid droplets)” value in experiment [1] is listed as “leads to emptying of lipid droplets”; in experiment [1] (listed as Isoproterenol) it was “stronger lipolytic effect on adipocytes that had been differentiated under a BAT induction protocol”.

B1: BMP7: bone morphogenetic protein, R&D Systems 354-BP, 125 ng/ml pre-treatment 3 days prior to induction (protein, UniProt P18075 293-431, looked up)
Bone morphogenetic protein 7: STGSKQRSQNRSKTPKNQEALRMANVAENSSSDQRQACKKHELYVSFRDLGWQDWIIAPEGYAAYYCEGECAFPLNSYMNATNHAIVQTLVHFINPETVPKPCCAPTQLNAISVLYFDDSSNVILKKYRNMVVRACGCH
For the molecule B1, the “effect on UCP1 mRNA expression (in words)” value in the experiment with UCP1 mRNA [3] is “only modestly increases”.
